≈ marks a conversion by molar mass, not a printed value. Read-outs that look alike come from different tables or passages of the source.
Assays:
β-lactamases = settings: literature; cited from earlier work
[1] = test system: Gram-negative and Gram-positive organisms; settings: literature; cited from earlier work
[2] = test system: Staph. aureus (Pen-Res) A-9606; test: MIC, tube dilution, Staphylococcus aureus A9606 (Pen-Res); assay type: cell-based; settings: Staphylococcus aureus, Staph. aureus A9606 (Pen-Res); overnight 37° C.; read-out: Minimum Inhibitory Concentration (M.I.C.)
Description: (§1) Representative compounds of the present invention were subjected to in vitro antibiotic screening against a variety of microorganisms.

E. coli A15119 = test: In vivo protection of mice, lethal infection with E. coli A15119; settings: Escherichia coli, 2 treatments, read-out: PD50
Protocol: (§2) Representative compounds of the present invention were also tested in vivo in mice and their PD50 (dose of compound in mg/kg required to protect 50% of the treated mice against an otherwise lethal infection of a micro-organism) values determined with respect to the test organisms shown below.

Proteus rettgeri A21203 = test: MIC, tube dilution, Proteus rettgeri A21203; assay type: cell-based; settings: Providencia rettgeri, A21203, Proteus rettgeri A21203; overnight 37° C.; read-out: Minimum Inhibitory Concentration (M.I.C.)
Description: as §1

[3] = test system: Klebsiella species A20468; test: MIC, tube dilution, Klebsiella species A20468; assay type: cell-based; settings: Klebsiella species (K. pneumoniae) A20468; overnight 37° C.; read-out: Minimum Inhibitory Concentration (M.I.C.)
Description: as §1

Staph. aureus A-9537 = test: MIC, tube dilution, Staphylococcus aureus A9537; assay type: cell-based; settings: Staphylococcus aureus, A9537, Staph. aureus A9537; overnight 37° C., Nutrient Broth; read-out: Minimum Inhibitory Concentration (M.I.C.)
Description: as §1

[4] = test system: Staph. aureus (Meth-Res) A-15097; test: MIC, tube dilution, Staphylococcus aureus A15097 (Meth-Res); assay type: cell-based; settings: Staphylococcus aureus, Staph. aureus A15097 (Meth-Res); overnight 37° C.; read-out: Minimum Inhibitory Concentration (M.I.C.)
Description: as §1

Ent. cloacae A-9656 = test: MIC, tube dilution, Enterobacter cloacae A9656; assay type: cell-based; settings: Enterobacter cloacae, A9656, Enterobacter cloacae A9656; overnight 37° C.; read-out: Minimum Inhibitory Concentration (M.I.C.)
Description: as §1

Ps. aeruginosa A-21213 = test: MIC, tube dilution, Pseudomonas aeruginosa A21213; assay type: cell-based; settings: Pseudomonas aeruginosa, A21213, Pseudomonas aeruginosa A21213; overnight 37° C.; read-out: Minimum Inhibitory Concentration (M.I.C.)
Description: as §1

Str. faecalis A-20688 = test: MIC, tube dilution, Streptococcus faecalis A20688; assay type: cell-based; settings: Enterococcus faecalis, A20688, Str. faecalis A20688; overnight 37° C.; read-out: Minimum Inhibitory Concentration (M.I.C.)
Description: as §1

Str. pneumoniae A-9585 = test: MIC, tube dilution, Streptococcus pneumoniae A9585; assay type: cell-based; settings: Streptococcus pneumoniae, A9585, Str. pneumoniae A9585; overnight 37° C., Nutrient Broth; read-out: Minimum Inhibitory Concentration (M.I.C.)
Description: as §1

Proteus vulgaris A21559 = test: MIC, tube dilution, Proteus vulgaris A21559; assay type: cell-based; settings: Proteus vulgaris, A21559, Proteus vulgaris A21559; overnight 37° C.; read-out: Minimum Inhibitory Concentration (M.I.C.)
Description: as §1

[5] = test system: Staph. aureus A-9537 and 50% serum; test: MIC, tube dilution, Staph. aureus A9537 + 50% serum; assay type: cell-based, Staphylococcus aureus; settings: Staphylococcus aureus, overnight 37° C., read-out: Minimum Inhibitory Concentration (M.I.C.)
Description: as §1

E. coli A-15119 = test: MIC, tube dilution, Escherichia coli A15119; assay type: cell-based; settings: Escherichia coli, A15119, E. coli A15119; overnight 37° C.; read-out: Minimum Inhibitory Concentration (M.I.C.)
Description: as §1

K. pneumoniae A-15130 = test: MIC, tube dilution, Klebsiella pneumoniae A15130; assay type: cell-based; settings: Klebsiella pneumoniae, A15130, K. pneumoniae A15130; overnight 37° C.; read-out: Minimum Inhibitory Concentration (M.I.C.)
Description: as §1

Ps. aeruginosa A-9843A = test: MIC, tube dilution, Pseudomonas aeruginosa A9843A; assay type: cell-based; settings: Pseudomonas aeruginosa, A9843A, read-out: Minimum Inhibitory Concentration (M.I.C.), Pseudomonas aeruginosa A9843A; overnight 37° C.
Description: as §1

Pr. mirabilis A-9900 = test: MIC, tube dilution, Proteus mirabilis A9900; assay type: cell-based; settings: Proteus mirabilis, A9900, Proteus mirabilis A9900; overnight 37° C.; read-out: Minimum Inhibitory Concentration (M.I.C.)
Description: as §1

Str. pyogenes A-9604 = test: MIC, tube dilution, Streptococcus pyogenes A9604; assay type: cell-based; settings: Streptococcus pyogenes, A9604, Str. pyogenes A9604; overnight 37° C., Nutrient Broth; read-out: Minimum Inhibitory Concentration (M.I.C.)
Description: as §1

Ser. marcescens A-20019 = test: MIC, tube dilution, Serratia marcescens A20019; assay type: cell-based; settings: Serratia marcescens, A20019, Serratia marcescens A20019; overnight 37° C.; read-out: Minimum Inhibitory Concentration (M.I.C.)
Description: as §1

E. coli A-20341-1 = test: MIC, tube dilution, Escherichia coli A20341-1; assay type: cell-based; settings: Escherichia coli, A203411, E. coli A20341-1; overnight 37° C.; read-out: Minimum Inhibitory Concentration (M.I.C.)
Description: as §1

S. aureus A9537 = test: In vivo protection of mice, lethal infection with S. aureus A9537; settings: Staphylococcus aureus, 2 treatments, read-out: PD50
Protocol: as §2

Pr. morganii A-15153 = test: MIC, tube dilution, Proteus morganii A15153; assay type: cell-based; settings: Morganella morganii, A15153, Proteus morganii A15153; overnight 37° C.; read-out: Minimum Inhibitory Concentration (M.I.C.)
Description: as §1

Ent. cloacae A-9659 = test: MIC, tube dilution, Enterobacter cloacae A9659; assay type: cell-based; settings: Enterobacter cloacae, A9659, Enterobacter cloacae A9659; overnight 37° C.; read-out: Minimum Inhibitory Concentration (M.I.C.)
Description: as §1

[6] = Mouse blood levels after intramuscular administration; assay type: in vivo; settings: average of 6 mice, read-out: Mouse blood level
Protocol: Mouse blood levels after intramuscular administration of representative compounds of the present invention were determined and are reported in the table below.

| SMILES | β-lactamase inhibition (β-lactamases) | MIC [2] [µg/mL] | MIC (Proteus rettgeri A21203) [µg/mL] | MIC [3] [µg/mL] | MIC (Staph. aureus A-9537) [µg/mL] | MIC [4] [µg/mL] | MIC (Ent. cloacae A-9656) [µg/mL] | MIC (Ps. aeruginosa A-21213) [µg/mL] | MIC (Str. faecalis A-20688) [µg/mL] | MIC (Str. pneumoniae A-9585) [µg/mL] | MIC (Proteus vulgaris A21559) [µg/mL] | MIC [5] [µg/mL] | MIC (E. coli A-15119) [µg/mL] | MIC (K. pneumoniae A-15130) [µg/mL] | MIC (Ps. aeruginosa A-9843A) [µg/mL] | MIC (Pr. mirabilis A-9900) [µg/mL] | MIC (Str. pyogenes A-9604) [µg/mL] | MIC (Ser. marcescens A-20019) [µg/mL] | MIC (E. coli A-20341-1) [µg/mL] | MIC (Pr. morganii A-15153) [µg/mL] | other results |
| --- | --- | --- | --- | --- | --- | --- | --- | --- | --- | --- | --- | --- | --- | --- | --- | --- | --- | --- | --- | --- | --- |
| COC(=O)C1=C(C)OC2C(NC(c3ccccc3)(c3ccccc3)c3ccccc3)C(=O)N12 (centres unmarked) | weak inhibitor of β-lactamases |  |  |  |  |  |  |  |  |  |  |  |  |  |  |  |  |  |  |  |  |
| CC(=O)NC=C[S+]([O-])C1=C(C(=O)O)N2C(=O)C(C(C)OS(=O)(=O)O)C2C1 (centres unmarked) | β-lactamase inhibitor |  |  |  |  |  |  |  |  |  |  |  |  |  |  |  |  |  |  |  | antibacterial activity [1]: some antibacterial activity |
| N[C@H]1C[C@H](C2=C(C(=O)O)N3C(=O)C[C@H]3S2)C1 [Example 75, 2-(trans 3-Aminocyclobutyl)-penem-3-carboxylic Acid] |  | 63 (≈ 262 µM) | 1 (≈ 4.16 µM) | > 125 | 0.06 (≈ 0.25 µM) | 4 (≈ 16.6 µM) | 4 (≈ 16.6 µM) | 125 (≈ 520 µM) | 4 (≈ 16.6 µM) | 0.002 (≈ 0.00832 µM) | 2 (≈ 8.32 µM) | 0.5 | 1 (≈ 4.16 µM) | 4 (≈ 16.6 µM) | 63 (≈ 262 µM) | 1 (≈ 4.16 µM) | 0.016 (≈ 0.0666 µM) | 2 (≈ 8.32 µM) | 8 (≈ 33.3 µM) | 4 (≈ 16.6 µM) | ED50 (E. coli A15119; IM, 6.5 × 10^5 organisms): 25 mg/kg; ED50 (E. coli A15119; PO, 6.5 × 10^5 organisms): > 50 mg/kg; ED50 (S. aureus A9537; A9537, im, IM, 7.3 × 10^5 organisms): 0.4 mg/kg; MIC (Ent. cloacae A-9659): 4 µg/mL (≈ 16.6 µM) |
| N[C@H]1C[C@@H](C2=C(C(=O)O)N3C(=O)C[C@H]3S2)C1 [Example 78, 2-(cis-3'-Aminocyclobutyl)penem-3-carboxylic Acid] |  | 16 (≈ 66.6 µM) | 4 (≈ 16.6 µM) | > 125 | 0.13 (≈ 0.541 µM) | 8 (≈ 33.3 µM) | 4 (≈ 16.6 µM) | > 125 | 16 (≈ 66.6 µM) | 0.03 (≈ 0.125 µM) | 4 (≈ 16.6 µM) | 2 | 2 (≈ 8.32 µM) | 4 (≈ 16.6 µM) | 16 (≈ 66.6 µM) | 4 (≈ 16.6 µM) | 0.06 (≈ 0.25 µM) | 4 (≈ 16.6 µM) | 16 (≈ 66.6 µM) | 8 (≈ 33.3 µM) | ED50 (E. coli A15119; IM, 7 × 10^5 organisms): 28 mg/kg; concentration at 10 min ([6]; 10 minutes after IM 40 mg/kg): 29700 ng/mL; concentration at 20 min ([6]; 20 minutes after IM 40 mg/kg): 19300 ng/mL; concentration at 0.5 h ([6]; 30 minutes after IM 40 mg/kg): 12600 ng/mL; concentration at 0.75 h ([6]; 45 minutes after IM 40 mg/kg): 6600 ng/mL; concentration at 1 h ([6]; 60 minutes after IM 40 mg/kg): < 5000 ng/mL; concentration at 1.5 h ([6]; 90 minutes after IM 40 mg/kg): < 5000 ng/mL; concentration at 2 h ([6]; 120 minutes after IM 40 mg/kg): < 5000 ng/mL; ED50 (S. aureus A9537; A9537, im, IM, 1 × 10^6 organisms): 0.63 mg/kg; ED50 (S. aureus A9537; A9537, po, PO, 1 × 10^6 organisms): 2.5 mg/kg; MIC (Ent. cloacae A-9659): 4 µg/mL (≈ 16.6 µM) |

Reference: patent US4272437A, “Antibacterial agents, and 4-thio azetidinone intermediates” (priority 1979, dated 1981)
